{"source": "patent US20250049791A1", "about": "“Synthesis of MEK7 Inhibitors and methods of Use Thereof” (Northwestern University, priority 2023, published 2025)", "key": {"MEK5": {"target": "T1, MEK5 (Homo sapiens, UniProt Q13163)", "T1 sequence (Q13163 1-448)": "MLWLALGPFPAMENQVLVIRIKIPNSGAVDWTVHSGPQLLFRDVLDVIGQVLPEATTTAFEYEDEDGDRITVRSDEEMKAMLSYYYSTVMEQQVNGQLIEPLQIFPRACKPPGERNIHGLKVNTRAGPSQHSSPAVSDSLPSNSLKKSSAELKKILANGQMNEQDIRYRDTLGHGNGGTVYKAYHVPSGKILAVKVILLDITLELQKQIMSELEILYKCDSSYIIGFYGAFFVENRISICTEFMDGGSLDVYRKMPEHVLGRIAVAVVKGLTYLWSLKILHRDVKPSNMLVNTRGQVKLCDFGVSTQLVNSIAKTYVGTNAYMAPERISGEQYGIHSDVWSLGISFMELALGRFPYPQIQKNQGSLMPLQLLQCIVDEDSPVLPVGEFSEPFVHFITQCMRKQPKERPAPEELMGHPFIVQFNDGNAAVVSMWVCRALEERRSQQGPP", "experiment": "Additional selectivity assay, MEK5 (FIG. 9)", "assay_type": "binding"}, "MEK6": {"target": "T2, MEK6 (Homo sapiens, UniProt P52564)", "T2 sequence (P52564 1-334)": "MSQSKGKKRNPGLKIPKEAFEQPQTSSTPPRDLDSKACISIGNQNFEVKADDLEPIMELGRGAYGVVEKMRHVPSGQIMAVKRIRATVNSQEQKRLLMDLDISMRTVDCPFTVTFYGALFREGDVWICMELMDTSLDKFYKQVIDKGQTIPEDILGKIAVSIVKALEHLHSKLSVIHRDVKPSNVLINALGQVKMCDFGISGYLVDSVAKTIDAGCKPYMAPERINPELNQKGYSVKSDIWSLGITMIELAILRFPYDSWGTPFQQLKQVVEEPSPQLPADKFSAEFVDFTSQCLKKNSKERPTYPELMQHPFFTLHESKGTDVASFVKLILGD", "experiment": "Additional selectivity assay, MEK6 (FIG. 9)", "assay_type": "binding"}, "[1]": {"target": "T3, recombinant active full-length human MEK7 (Homo sapiens, UniProt O14733)", "T3 construct": "recombinant active full-length human MEK7 (Carna Biosciences); purchased Carna Biosciences", "T3 sequence (O14733 1-419)": "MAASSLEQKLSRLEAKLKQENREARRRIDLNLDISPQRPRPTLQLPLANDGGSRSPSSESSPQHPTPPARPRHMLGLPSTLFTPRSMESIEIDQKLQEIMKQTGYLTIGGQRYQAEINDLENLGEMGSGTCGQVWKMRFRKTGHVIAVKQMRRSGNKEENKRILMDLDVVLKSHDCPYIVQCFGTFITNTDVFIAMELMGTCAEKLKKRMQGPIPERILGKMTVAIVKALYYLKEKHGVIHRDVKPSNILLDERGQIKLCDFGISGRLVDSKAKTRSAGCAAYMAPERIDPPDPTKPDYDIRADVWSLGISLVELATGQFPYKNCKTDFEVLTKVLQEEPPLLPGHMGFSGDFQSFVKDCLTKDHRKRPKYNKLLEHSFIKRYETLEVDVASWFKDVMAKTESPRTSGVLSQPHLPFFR", "experiment": "ADP-Glo kinase activity assay, MEK7 with JNK1 substrate", "assay_type": "biochemical", "settings": "for IC50: 30 min preincubation", "procedure": "Procedure for a 5 μL Kinase reaction using the ADP-Glo Kinase Assay Kit from Promega. Staurosporine was used as the positive control, and DMSO (vehicle) was employed as the negative control. Activity of recombinant active full-length human MEK7 (Carna Biosciences) was measured with recombinant full-length human substrate JNK1 (MAPK8). Using a Mantis, a mixture of MEK7 and JNK1 was dispensed into a 384-well low volume white Proxiplate. For each well, 4 ng of MEK7 and 600 ng of JNK1 in kinase buffer (CST) were used, accounting for 1 μL of this mixture per well. Inhibitor was prepared in a DMSO solution (40 mM). A dose-response dilution was performed in a 384-well Echo transfer plate. Using an Echo Access, 10 nL of each solution was dispensed into the same 384-well low volume white Proxiplate as above. This mixture was allowed to incubate for 30 minutes at room temperature. Using a Mantis, 1 uL of an 8 μM ATP solution was added to each well, and the plate was allowed to incubate for another 1 hour at room temperature. Using the Mantis again, 4 μL of ADP Glo Reagent was dispensed into each well, and the plate was allowed to incubate for 45 min at room temperature. Finally, 9 μL of Kinase Detection Reagent was added manually to each well, and the plate was allowed to incubate for 45 minutes at room temperature. Luminescence was read on a Synergy Neo2 Plate Reader with filter cubes 3 and 114. Integration time was set to 0.20 seconds, gain set to 160, and read height set at 6 mm. All experiments were performed in triplicate on the plate, and at least in one separate technical duplicate was performed.\nMEK4 selectivity was performed in the same manner with activated MEK4 (Carna Biosciences). Here, p-38α was employed as the kinase substrate in lieu of JNK1 due to the availability of reagents. […] To probe the ATP-competitive nature of 25, this compound was subjected to a similar assay forgoing the 30 minute incubation time described above (STAR Protocols 2021, 2, 100717). The results are tabulated below in compound characterization. Potency determined by duplicate of triplicates corresponded to a IC50 value, which is in line with the ratio difference observed among other covalent inhibitors (for examples, see Cell Chem. Biol. 2020, 27, 1285)."}, "PAMPA permeability": {"experiment": "PAMPA permeability", "assay_type": "in vitro ADME", "settings": "FIG. 12"}, "MEK3": {"target": "T4, MEK3 (Homo sapiens, UniProt P46734)", "T4 sequence (P46734 1-347)": "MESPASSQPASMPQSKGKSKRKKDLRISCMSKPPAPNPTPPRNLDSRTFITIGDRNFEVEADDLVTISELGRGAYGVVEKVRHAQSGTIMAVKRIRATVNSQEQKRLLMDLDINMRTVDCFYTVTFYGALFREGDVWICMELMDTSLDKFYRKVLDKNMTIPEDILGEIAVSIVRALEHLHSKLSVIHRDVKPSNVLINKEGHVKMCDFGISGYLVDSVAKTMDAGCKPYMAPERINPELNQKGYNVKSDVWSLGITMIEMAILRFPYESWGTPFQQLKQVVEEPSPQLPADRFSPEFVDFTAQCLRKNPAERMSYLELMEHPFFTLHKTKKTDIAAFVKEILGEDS", "experiment": "Additional selectivity assay, MEK3 (FIG. 9)", "assay_type": "binding"}, "[2]": {"settings": "overall value of two experiments, read-out: MEK7 IC50"}, "[3]": {"settings": "MEK7 IC50, first experiment (IC50±SEM, n=3), first value in brackets"}, "[4]": {"settings": "MEK7 IC50, second experiment (IC50±SEM, n=3), second value in brackets"}}, "note": "Where two headings read alike, the source gives them in different places."}
{"molecule": "CNc1cc(Oc2cccc(NC(=O)CCl)c2)ncn1", "note": "[Compound 8, 2-chloro-N-(3-((6-(methylamino)pyrimidin-4-yl)oxy)phenyl)acetamide]", "values": [{"measurement": "activity/binding at MEK5", "setting": "MEK5", "value": "inactive"}, {"measurement": "activity/binding at MEK6", "setting": "MEK6", "value": "inactive"}, {"measurement": "IC50", "setting": "[1]; [2]", "value": 60, "unit": "nM"}, {"measurement": "IC50", "setting": "[1]; read-out: MEK7 IC50", "value": 60, "unit": "nM"}, {"measurement": "IC50", "setting": "[1]; [3]", "value": "87 ± 41", "unit": "nM"}, {"measurement": "IC50", "setting": "[1]; [4]", "value": "34 ± 42", "unit": "nM"}, {"measurement": "PAMPA cell permeability", "setting": "PAMPA permeability", "value": "highly membrane permeable"}, {"measurement": "activity/binding at MEK3", "setting": "MEK3", "value": "inactive"}]}
{"molecule": "C=CC(=O)Nc1cccc(Oc2cc(NC)ncn2)c1", "note": "[Compound 9, N-(3-((6-(methylamino)pyrimidin-4-yl)oxy)phenyl) acrylamide]", "values": [{"measurement": "activity/binding at MEK5", "setting": "MEK5", "value": "inactive"}, {"measurement": "activity/binding at MEK6", "setting": "MEK6", "value": "inactive"}, {"measurement": "in vitro activity against MAP2K7, in words", "setting": "[1]; ADP-Glo assay, comparison within the series", "value": "less active than compound 8"}, {"measurement": "IC50", "setting": "[1]; [3]", "value": "230 ± 190", "unit": "nM"}, {"measurement": "IC50", "setting": "[1]; [4]", "value": "610 ± 400", "unit": "nM"}, {"measurement": "activity/binding at MEK3", "setting": "MEK3", "value": "inactive"}]}
{"molecule": "O=C(CCl)Nc1cccc(Oc2cc(NCc3ccc(C(F)(F)F)cc3)ncn2)c1", "note": "[Compound 37, 2-chloro-N-(3-((6-((4-(trifluoromethyl)benzyl)amino)pyrimidin-4-yl)oxy)phenyl)acetamide]", "values": [{"measurement": "IC50", "setting": "[1]; [2]", "value": 410, "unit": "nM"}, {"measurement": "IC50", "setting": "[1]; [3]", "value": "200 ± 410", "unit": "nM"}, {"measurement": "IC50", "setting": "[1]; [4]", "value": "640 ± 270", "unit": "nM"}]}
